This note sets out measurements from patent US8053442B2, “Organic compounds” (Novartis AG, priority 2008, dated 2011).

Assay [1] has as its system Plasmodium falciparum, NF54 (sensitive to all known drugs). Briefly: In vitro assay, 3H-hypoxanthine incorporation, Plasmodium falciparum NF54. It counts as cell-based. To be noted: NF54 (CQ sensitive P. falciparum strain). The method, then: The compounds of the invention and standard compounds are tested in vitro against two standard parasite strains: Plasmodium falciparum, NF54 (sensitive to all known drugs) and Plasmodium falciparum, K1 (chloroquine and pyrimethamine resistant). Chloroquine diphosphate (Sigma C6628), artemisinin (Sigma 36159-3), artesunate (Mepha), atovaquone (GSK) and proguanil (Roche) are used as the standard drugs. The testing is carried out in 96-well plates (Costar™ 96-well microtiter plates).
Smears of the stock cultures of the two strains are prepared and the parasitemia for each culture is determined. Cultures with parasitemia lower than 2% are not used.
Stock compound solutions are prepared in DMSO at 10 mg/mL. If insoluble in DMSO, other solvents may be used according to the recommendations of the supplier. […]
The plates are harvested with a Betaplate™ cell harvester (Wallac, Zurich, Switzerland), which transfers the red blood cells onto a glass fiber filter and washes the filters with distilled water. The dried filters are inserted into a plastic foil with 10 mL of scintillation fluid and counted in a Betaplate™ liquid scintillation counter (Wallac, Zurich, Switzerland). The results are recorded as counts per minute (cpm) per well at each drug concentration.
Data is transferred into a graphic programme (e.g. EXCEL) and expressed as percentage of the untreated controls. […]

Assay [2] deals with Plasmodium berghei, GFP ANKA strain. Briefly: In vivo assay, P. berghei mouse model. As to conditions: read-out: ED50 in P. berghei mouse model. The method, then:
The Plasmodium berghei, GFP ANKA strain described in B. Franke-Fayard et al., Mol. Biochem. Parasitol., 137(1), 23-33, 2004 is used. This strain is maintained in female NMRI mice (20-22 g). The mice are kept in Standard Macrolon cages type II under standard conditions at 22° C. and 60-70% relative humidity, on a diet of pellets (PAB45—NAFAG 9009, Provimi Kliba AG, CH-4303 Kaiseraugst, Switzerland) and water ad libitu. Chloroquine (Sigma C6628) and artemisinin (Sigma 36, 159-3) are used as the standard drugs.
Stock compound solutions are prepared in 100% DMSO (suspended) or a solution consisting of 70% Tween-80 (d=1.08 g/mL) and 30% ethanol (d=0.81 g/mL), followed by a 10-fold dilution in H2O. […]
On days 1, 2 and 3 (24, 48 and 72 hours post-infection), the experimental groups are treated with a single daily dose per oral dosing (p.o). […] The dosage is determined by a preliminary toxicity test. […]
On day 4, 24 hours after the last drug treatment, 1 μL tail blood is taken and dissolved in 1 mL PBS buffer. Parasitaemia is determined with a FACScan (Becton Dickinson) by counting 100,000 red blood cells. The difference between the mean value of the control group and those of the experimental groups is calculated and expressed as a percentage relative to the control group (=activity). […] The survival of the animals is monitored for up to 30 days. […]

In assay [1], `C[C@@H]1Cc2c([nH]c3cc(Cl)c(F)cc23)[C@]2(N1)C(=O)Nc1ccc(Cl)cc12` [Example 50, (1S,3R)-5′,7-Dichloro-6-fluoro-3-methyl-2,3,4,9-tetrahydrospiro[β-carboline-1,3′-indol]-2′(1′H)-one] yielded a concentration for half-maximal inhibition (IC50) of 0.9 nM. The ED50 in assay [2] was found to be 1.2 mg/kg.

In assay [1], `C[C@H]1Cc2c([nH]c3ccc(Cl)cc23)[C@@]2(N1)C(=O)Nc1ccc(Cl)cc12` [Example 62, (1R,3S)-5′,6-Dichloro-3-methyl-2,3,4,9-tetrahydrospiro[β-carboline-1,3′-indol]-2′(1′H)-one] came in with an IC50 of 3.4 nM. Also, the ED50 in assay [2] was 1.5 mg/kg.
